Assays:
[1] = system: Bacillus cereus; assay: Inhibition of Bacillus cereus phosphatidylcholine specific phospholipase C (PC-PLC BC) assessed as enzyme activity by measuring formation of resorufin fluorophore 10 uM by Amplex-Red based fluorescence assay relative to control; design: scale not given: the % may be the effect or the level left
[2] = system: MDA-MB-231; assay: Antiproliferative activity against human MDA-MB-231 cells assessed as cell proliferation at 10 uM measured after 3 days incubation followed by incubated 5 hrs with [3H]-thymidine by 3H-thymidine incorporation assay relative to control; assay type: functional; details: MDA-MB-231, 72 h, time 3 day, read-out: Activity
[3] = system: HCT-116; assay: Antiproliferative activity against human HCT-116 cells assessed as cell proliferation at 10 uM measured after 3 days incubation followed by incubated 5 hrs with [3H]-thymidine by 3H-thymidine incorporation assay relative to control; assay type: functional; details: HCT-116, 72 h, time 3 day, read-out: Activity

Structure (SMILES): O=C(NO)c1cc(NCc2ccc(Br)cc2)ccc1C1CCOCC1
- Activity [1]: 71.4%
- growth at 10 µM [2]: 61.6%
- growth at 10 µM [3]: 60.1%

Structure (SMILES): COC(=O)c1cc(NCc2ccc(F)cc2)ccc1C1CCOCC1
- Activity [1]: 52%
- growth at 10 µM [2]: 36%
- growth at 10 µM [3]: 25.3%

Structure (SMILES): O=C(NO)c1cc(NCc2cccc(Cl)c2)ccc1N1CCOCC1
- Activity [1]: 30.5%

Structure (SMILES): O=C(NO)c1ccc(NCc2cccc(Cl)c2)cc1N1CCOCC1
- Activity [1]: 47.5%
- growth at 10 µM [2]: 39.6%
- growth at 10 µM [3]: 48.6%

Structure (SMILES): COc1ccc(CNc2ccc(C(=O)NO)c(N3CCOCC3)c2)cc1
- Activity [1]: 45.5%
- growth at 10 µM [2]: 76.9%
- growth at 10 µM [3]: 91.5%

Structure (SMILES): O=C(NO)c1cc(NCc2ccccc2F)ccc1C1CCOCC1
- Activity [1]: 94%
- growth at 10 µM [2]: 88%
- growth at 10 µM [3]: 98.6%

Structure (SMILES): COc1cccc(CNc2ccc(C3CCOCC3)c(C(=O)O)c2)c1
- Activity [1]: 106%
- growth at 10 µM [2]: 104%
- growth at 10 µM [3]: 101%

Structure (SMILES): O=C(NO)c1ccc(NCc2ccc(Cl)cc2)cc1N1CCOCC1
- Activity [1]: 54.4%
- growth at 10 µM [2]: 45.5%
- growth at 10 µM [3]: 57.4%

Structure (SMILES): COc1cccc(CNc2ccc(C(=O)O)c(N3CCOCC3)c2)c1
- Activity [1]: 106%
- growth at 10 µM [2]: 101%
- growth at 10 µM [3]: 103%

Structure (SMILES): O=C(O)c1ccc(NCc2ccccc2)cc1N1CCOCC1
- Activity [1]: 96.6%
- growth at 10 µM [2]: 96.8%
- growth at 10 µM [3]: 92.4%

Structure (SMILES): COC(=O)c1cc(NCc2ccccc2OC)ccc1C1CCOCC1
- Activity [1]: 94.7%
- growth at 10 µM [2]: 22%
- growth at 10 µM [3]: 31.2%

Structure (SMILES): O=C(O)c1cc(NCc2ccc(F)cc2)ccc1C1CCOCC1
- Activity [1]: 102%
- growth at 10 µM [2]: 107%
- growth at 10 µM [3]: 104%

Structure (SMILES): O=C(O)c1cc(NCc2cccc(F)c2)ccc1C1CCOCC1
- Activity [1]: 36.2%
- growth at 10 µM [2]: 104%
- growth at 10 µM [3]: 103%

Structure (SMILES): O=C(O)c1cc(NCc2ccc(Cl)cc2)ccc1C1CCOCC1
- Activity [1]: 112%
- growth at 10 µM [2]: 115%
- growth at 10 µM [3]: 101%

Structure (SMILES): O=C(NO)c1cc(NCc2cccc(F)c2)ccc1C1CCOCC1
- Activity [1]: 88.2%
- growth at 10 µM [2]: 84.4%
- growth at 10 µM [3]: 94.4%

Structure (SMILES): COc1ccccc1CNc1ccc(C2CCOCC2)c(C(=O)NO)c1
- Activity [1]: 80.7%
- growth at 10 µM [2]: 80.7%
- growth at 10 µM [3]: 93.3%

Structure (SMILES): O=C(O)c1ccc(NCc2ccccc2F)cc1N1CCOCC1
- Activity [1]: 82.2%
- growth at 10 µM [2]: 96.4%
- growth at 10 µM [3]: 95.2%

Structure (SMILES): COC(=O)c1cc(NCc2cccc(F)c2)ccc1C1CCOCC1
- Activity [1]: 44.5%
- growth at 10 µM [2]: 41.3%
- growth at 10 µM [3]: 29.2%

Structure (SMILES): COc1ccc(CNc2ccc(C3CCOCC3)c(C(=O)NO)c2)cc1
- Activity [1]: 80.4%
- growth at 10 µM [2]: 82%
- growth at 10 µM [3]: 88.6%

Structure (SMILES): O=C(O)c1ccc(NCc2cccc(F)c2)cc1N1CCOCC1
- Activity [1]: 84.9%
- growth at 10 µM [2]: 92.4%
- growth at 10 µM [3]: 93.3%

Structure (SMILES): COC(=O)c1cc(NCc2cccc(OC)c2)ccc1C1CCOCC1
- Activity [1]: 85.5%
- growth at 10 µM [2]: 83.9%
- growth at 10 µM [3]: 62.5%

Structure (SMILES): O=C(NO)c1ccc(NCc2ccc(F)cc2)cc1N1CCOCC1
- Activity [1]: 49.2%
- growth at 10 µM [2]: 81.6%
- growth at 10 µM [3]: 91.4%

Structure (SMILES): O=C(O)c1ccc(NCc2ccc(F)cc2)cc1N1CCOCC1
- Activity [1]: 62.4%
- growth at 10 µM [2]: 94.8%
- growth at 10 µM [3]: 91.6%

Structure (SMILES): O=C(NO)c1cc(NCc2cccc(Cl)c2)ccc1C1CCOCC1
- Activity [1]: 79.7%
- growth at 10 µM [2]: 80.1%
- growth at 10 µM [3]: 83%

Structure (SMILES): COC(=O)c1ccc(NCc2ccc(OC)cc2)cc1N1CCOCC1
- Activity [1]: 104%
- growth at 10 µM [2]: 87.5%
- growth at 10 µM [3]: 70.4%

Structure (SMILES): O=C(O)c1cc(NCc2cccc(Cl)c2)ccc1N1CCOCC1
- Activity [1]: 10.7%

Structure (SMILES): COC(=O)c1cc(N(C)Cc2ccccc2Cl)ccc1N1CCOCC1
- growth at 10 µM [2]: 83.8%
- growth at 10 µM [3]: 54.5%
